Assay [1] has as its target T1, LTD4 (Cavia porcellus, UniProt Q2NNR5).
T1 construct: isolated guinea pig trachea; from tissue; host or cells: guinea pig tracheal rings
T1 sequence (Q2NNR5 1-340): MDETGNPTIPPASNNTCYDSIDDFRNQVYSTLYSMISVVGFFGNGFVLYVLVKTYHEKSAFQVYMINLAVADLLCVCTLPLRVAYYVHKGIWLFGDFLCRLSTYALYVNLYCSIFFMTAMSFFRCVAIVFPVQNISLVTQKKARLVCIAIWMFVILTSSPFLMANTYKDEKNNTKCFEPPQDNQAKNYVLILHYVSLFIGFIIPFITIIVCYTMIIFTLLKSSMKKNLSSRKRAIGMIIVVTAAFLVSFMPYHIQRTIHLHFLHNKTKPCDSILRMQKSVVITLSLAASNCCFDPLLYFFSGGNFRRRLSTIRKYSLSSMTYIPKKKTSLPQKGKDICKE
Description: LTD4 antagonist activity in isolated guinea pig trachea. In kind it is cell-based. Particulars: 1 × 10^-5 M. As to the method:
The LTD4 antagonist activity of the compounds of the invention is assessed in the in vitro isolated guinea pig trachea assay. Male Hartley guinea pigs (350-400 g) are euthanized by a blow to the head, the neck is opened and the trachea removed. The trachea is maintained in aerated physiological salt solution, cleared of connective tissue and fat and cut into rings approximately 2 mm in width (usually containing two cartilaginous segments per ring). Two pieces of silk suture are then passed through the lumen of the tracheal ring and are tied around the cartilage, one on each side of the trachealis muscle. The tracheal ring is suspended between a glass hook and a force displacement transducer in a 10 ml organ bath for measurement of isometric tension. Tissues are maintained at 37° C. in aerated ([…] /5% CO2) physiological salt solution of the following composition: […] The tracheal rings are maintained at 2 g resting tension and equilibrated for 45 minutes (with frequence washing and readjustment of resting tension). The tracheal rings are first contracted by the addition of carbachol (3×10^-6 M), to determine tissue responsiveness and establish a reference contraction. On attainment of a stable level of contraction (approximately 30 minutes), the tissues are washed several times until baseline tension has been restored and the re-equilibrated for 30 minutes. The tissues are then incubated for 45 minutes with a test antagonist (either 1×10^-6 M or 1×10^-5 M) or 10 μl of an appropriate solvent control (control, non-treated). One tissue in each group serves as the control. Twenty minutes prior to the construction of the LTD4 cumulative concentration-response curve, L-[…]×10^-2 M final bath concentration) is added to inhibit bioconversion of LTD4 to LTE4. Only one LTD4 concentration-response curve is constructed in each tissue. All responses to LTD4 in an individual tissue are measured as a percentage of the reference contraction of that tissue to carbachol. LTD4 antagonist activity is determined by comparison of the concentration response curves of LTD4 in the presence and absence of antagonist. Assessment of the relative rightward shift of the antagonist treated curve relative to the solvent (control) treated tissue is calculated as a concentration ratio (Eq. A) and used in subsequent calculations to derive an antagonist pKB value (Eqs. B and C). In the vent that the maximum response to LTD4 is depressed, the EC50 for that particular curve is determined, an "apparent" pKB reported, and the compound reported as "not-competitive." [formula] If a compound is found to be active and/or depress the maximal response to LTD4, then a range of concentrations of the test compound should be used generating multiple concentration ratios which would than be used to perform a Schild analysis, and determination of a pA2 value where appropriate.

Assay [2] concerns the target T2, 5-lipoxygenase (Rattus norvegicus, UniProt P12527).
T2 construct: Peritoneal PMN are obtained from female Wistar rats (150-250 g); endogenous in cells; host or cells: rat glycogen-elicited peritoneal polymorphonuclear leukocytes, intact
T2 sequence (P12527 1-673): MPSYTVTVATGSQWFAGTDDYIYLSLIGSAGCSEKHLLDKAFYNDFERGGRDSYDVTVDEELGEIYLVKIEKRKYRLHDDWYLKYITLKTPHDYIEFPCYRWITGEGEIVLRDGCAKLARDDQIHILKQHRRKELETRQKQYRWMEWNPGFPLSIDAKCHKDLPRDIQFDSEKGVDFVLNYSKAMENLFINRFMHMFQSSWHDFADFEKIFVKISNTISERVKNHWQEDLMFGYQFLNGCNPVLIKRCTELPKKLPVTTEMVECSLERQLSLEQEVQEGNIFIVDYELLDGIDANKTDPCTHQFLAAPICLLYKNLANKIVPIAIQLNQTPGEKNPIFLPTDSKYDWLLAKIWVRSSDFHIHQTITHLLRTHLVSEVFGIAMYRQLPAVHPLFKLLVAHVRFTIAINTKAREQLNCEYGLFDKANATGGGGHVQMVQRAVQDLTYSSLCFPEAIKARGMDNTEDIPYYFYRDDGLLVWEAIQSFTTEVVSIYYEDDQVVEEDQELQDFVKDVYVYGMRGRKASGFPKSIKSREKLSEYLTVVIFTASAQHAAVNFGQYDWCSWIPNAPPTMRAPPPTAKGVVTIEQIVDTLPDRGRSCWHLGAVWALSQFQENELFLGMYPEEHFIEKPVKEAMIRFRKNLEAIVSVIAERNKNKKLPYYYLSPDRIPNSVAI
Description: inhibition of 5-HETE synthesis by rat glycogen elicited polymorphonuclear leukocytes. In kind it is cell-based. To be noted: 10 μM, rat PMN, negative = potentiation of 5-HETE synthesis. An outline of the steps:
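Peritoneal PMN from female Wistar rats given i.p. glycogen 24 h earlier were preincubated with compound for 10 min at 37° C (2×10^7 cells/ml, 10 mM L-cysteine). They were then stimulated 10 min with 10 μM A23187 plus 0.5 μM [14C]arachidonic acid. 5-HETE was separated by TLC and quantified by scintillation.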

Structures can show the parent of a compound that is named as a salt.

By Kb is commonly meant the affinity of an antagonist, worked out from how it opposes an agonist. The low end stands for higher antagonist affinity, the high end for lower antagonist affinity. The term inhibition denotes the relative decrease from the control value, in per cent. `C[C@H](C(=O)N(C)O)c1ccc2cc(OCc3ccc4ccccc4n3)ccc2c1` [Example 24, (S)-N-Hydroxy-α-N-dimethyl-6-(2-quinolinylmethoxy)-2-naphthaleneacetamide] gave a Kb in assay [1] of 0.501 µM. Also, the inhibition at 10 µM in assay [2] (read-out: % Inhibition of 5-LO (as 5-HETE)) stood at 100%.

In assay [1], `C[C@H](C(=O)O)c1ccc2cc(OCc3ccc4ccccc4n3)ccc2c1` [Example 17, S-(α)-α-Methyl-6-(2-quinolinylmethoxy)-2-naphthaleneacetic acid, tromethanime salt] showed a Kb of 0.631 µM. In addition, the “% Inhibition of 5-LO (as 5-HETE)” value in assay [2] amounted to 85%.

The values are drawn from patent US5208344A, “Naphthalenepropionic acid derivatives as anti-inflammatory/antiallergic agents” (American Home Products Corporation, priority 1991, dated 1993).
